The source of these data is patent US12144792B2, “Therapeutic agents for neurodegenerative diseases” (priority 2016, dated 2024).

In series [1] the test system is Niemann-Pick A (NPA) patient fibroblasts. The experiment in a line: Lysosomal volume via LysoTracker. Format: cell-based, human. The following applies: 1 mM, 6 days, vs untreated.
The subject of series [2] is Mucolipidosis Type II (MLII) patient fibroblasts. Put plainly: Lysosomal volume via LysoTracker. Format: cell-based, human. Conditions: 1 mM, 6 days, vs untreated.
Series [3] relates to Aspartylglucosaminuria patient fibroblasts. The experiment in a line: Lysosomal volume via LysoTracker. Format: cell-based, human. Conditions: 1 mM, 6 days, vs untreated.
In series [4] the test system is Hexb^−/− mouse (Sandhoff disease model). Put plainly: Lifespan of Sandhoff mouse. Format: in vivo. The following applies: 0.1 g/kg from 3 weeks of age, p<0.05 vs untreated. As to the method:
This study made use of a mouse model of Sandhoff disease, the Hexb^−/− mouse, as described in Jeyakumar et al. (Jeyakumar, M. et al. (1999) Proc. Natl. Acad. Sci. USA 96: 6388-6393).
In FIG. 7A, acetyl-leucine-treated mice were treated with 0.1 g/kg acetyl-leucine from 3 weeks of age. The asterisks (*) indicates a p-value of <0.05 vs untreated Sandhoff mice. Data is average of n=6 mice per group. Without treatment, the median survival time of Sandhoff mice was 112 days. Treatment with acetyl-leucine (0.1 g/kg body weight since 3 weeks of age) increased the median lifespan to 120 days.

Series [5] has as its system Tay-Sachs disease patient fibroblasts. Put plainly: Glycosphingolipid (GSL) levels via HPLC. Conditions: 1 mM for 6 days, p<0.05. In kind it is cell-based, human.
Series [6] has as its system patient with GM1 Gangliosidosis. The experiment in a line: Case study, patient evaluation (SARA, mRDS, EQ-5D-5L). Format: in vivo, human. Conditions: Ex. 6, GM1 Gangliosidosis; 1.5 then 3 g per day; after one month. The text has this: Before treatment was commenced, examination of the patient indicated a Scale for Assessment and Rating of Ataxia (SARA) score of 35/40, a mRDS score of 15, and a EQ-5D-5L visual scale of 50. The patient was started on therapy with acetyl-leucine at a dose of 1.5 g per day for the first week, followed by a dose of 3 g per day for the second week onwards.

Series [7] deals with patients with multisystemic atrophy cerebellar type (MSA-C). The experiment in a line: Case studies, clinical examination. Format: in vivo, human.
Series [8] relates to patient with oligosymptomatic MSA-C. Put plainly: Gait analysis. Conditions: Ex. 8 Patient 3, MSA-C; 3 then 5 gram per day; after one month. In kind it is in vivo, human. As to the method:
After one month of treatment, a further examination was carried out.
Treatment was again suspended and the patient was evaluated three weeks later.

For series [9], the system named is patients with downbeat nystagmus. Put plainly: Case studies, clinical examination (visual acuity, posturography). In kind it is in vivo, human. The text has this: The patient was diagnosed with downbeat nystagmus: the patient was severely impaired by blurred vision (oscillopsia) due to the nystagmus, and experienced difficulties while reading and writing. The patient's visual acuity was: right 0.75, left 0.67, binocular 0.83, and the downbeat nystagmus was documented by video-oculography. […] […] […] The patient was able to suppress the nystagmus by visual fixation. In addition, the patient's spatial orientation was improved.

The next series has as its system NPC patients. The experiment in a line: Clinical severity score (CSS) and annual severity increment score (ASIS). In kind it is in vivo, human. Conditions: ten NPC patients, 4.5 g/day. The text has this: An NPC patient's severity may be quantified by assigning a clinical severity score (CSS), which assesses various parameters of the disease and gives each parameter a score out of 5 (higher score=greater severity). See Yanjanin et al., “Linear Clinical Progression, Independent of Age of Onset, in Niemann-Pick Disease, Type C,” Am J Med Genet Part B 153B:132-140. In an untreated patient, one can typically predict how the CSS will change over time in an individual, as disease progression appears to be linear. For example, if Patient A moves from a CSS of 8 to a CSS of 12 between month 0 and month 12, it can be predicted that by month 36, the patient will have a CSS of 20. The annual severity increment score (ASIS) quantities the annual rate of change in the CSS, calculated by dividing the CSS of a patient by the patient's age. […]
Ten NPC patients were administered acetyl-leucine at 4.5 g/day over long durations. A CSS was determined at baseline, and at various time points, for eye movement, ambulation, speech, swallow, fine motor skills, cognition, memory, and seizures. An overall CSS was calculated at baseline and at each such time point by adding the individual CSS values for each parameter (eye movement, ambulation, etc.).
The ASIS at baseline and each time point was calculated using each patient's CSS and age at the time of assessment. […]

Series [10] concerns microtubule-associated protein 1A/1B-light chain 3-phosphatidylethanolamine conjugate (LC3-II). The experiment in a line: LC3-II levels relative to tubulin loading control. In kind it is in vivo, mouse. The following applies: NPC1−/− mice, 0.1 g/kg body weight daily from 3 weeks of age; sacrificed at 8 weeks. How it is done:
The Niemann-Pick Disease Type C (NPC) mouse model shares a number of pathological features with Alzheimer's disease (AD) as described herein. […] Mice were sacrificed at 8 weeks of age. Levels of amyloid precursor protein C-terminal fragments (APP-CTFs) were evaluated relative to total amyloid precursor protein (APP) levels in the cerebellum for wild type, untreated wild type NPC1^−/− mice, and AL-treated wild type NPC1^−/− mice. Levels of microtubule-associated protein 1A/1B-light chain 3-phosphatidylethanolamine conjugate (LC3-II) were also evaluated relative to levels of tubulin loading control for wild type, untreated wild type NPC1^−/− mice, and AL-treated wild type NPC1^−/− mice.

In a further series the test system is patients with vertigo. Conditions: used in France to treat acute vertigo since 1957; long-term safety not determined; cited from earlier work.
In series [11] the test system is 12 patients with Niemann-Pick Type C (NPC). The following applies: one-month study, 12 NPC patients (Bremova et al. 2015); cited from earlier work.
The mark [12] stands for this setting: Ex. 12 Patient 1, approximately 14 weeks after starting.

With `CC(=O)NC(CC(C)C)C(=O)O` (racemic) [acetyl-DL-leucine], the “LysoTracker fluorescence (lysosomal volume)” value (shortened to “LysoTracker fluorescence”) in series [1] is listed as “statistically significant reduction in LysoTracker fluorescence”. For the same molecule, in series [2], the “LysoTracker fluorescence” value is on record as “statistically significant reduction in LysoTracker fluorescence”. The “LysoTracker fluorescence” value in series [3] is “trend in reducing LysoTracker fluorescence”. In series [4], the lifespan entry was “statistically significant increase in the lifespan”. Besides, the GSL levels entry in [5] is on record as “this decrease was statistically significant”. For the same molecule, the symptoms on re-examination result in [6] is “stable general condition, increased gait (more fluent), and stable stance in natural position”. Moreover, the speech entry in [7] (Ex. 8 Patient 1, MSA-C, 5 g per day, after one week) was “significant improvement in speech”. Moreover, in series [7] (Ex. 8 Patient 2, MSA-C, 3 then up to 5 gram per day, after 3 weeks), the gait result is recorded as “significant improvement of gait”. Further, the falls result in series [7] (Ex. 8 Patient 2, MSA-C, after 3 weeks, before approximately 10 falls a month) is on record as “the falls completely stopped”. Also, the “symptoms after stopping medication” value in series [7] (Ex. 8 Patient 2, MSA-C, one week after stopping) was “deterioration of gait and dizziness”. Besides, the “gait analysis, summary” value in [8] was “improvement of gait speed, and reductions of track width and gait fluctuations”. Besides, the patient-reported benefit result in series [9] (Ex. 12 Patient 1, downbeat nystagmus, 3 then 5 gram per day, after 10 days) is listed as “significant benefit”. Moreover, in [9] (setting [12]), the “nystagmus, clinical examination by two independent examiners” value is reported as “reduction of the nystagmus” and the posturography entry is reported as “reduction of postural sway”. In addition, in series [9] (Ex. 12 Patient 1, continued treatment at 5 gram per day), the side-effects result was “no side-effects resulted”. The symptoms result in series [9] (Ex. 12 Patient 2, downbeat nystagmus, 3 g/day first week, 5 g/day thereafter) is reported as “improvement of gait”. Also, in the series on NPC patients, the “change of ASIS relative to baseline” value was “all ten patients showed a reduction in ASIS” and the “change of overall CSS over the course of the experiment” value was “none of the ten patients showed an overall increase in CSS”. Also, the “LC3-II levels relative to tubulin” value in [10] is on record as “lowering of LC3-II”. In addition, in the series with patients with vertigo, the safety profile entry is “excellent safety profile”. Further, in series [11], the ataxia symptoms entry is on record as “symptomatic improvement of ataxia”.
